According to patent US6355799B1, “Substituted benzene compounds, process for their preparation, and herbicidal and defoliant compositions containing them” (ISK Americas Incorporated, priority 1997, dated 2002):

Columns and labels:
Format in all cases: in vivo
[1] = test system: upland rice (Oryza sp., var. Tebonnet, RICE); assay: Pre-emerge test, crop safety; conditions: pre-emerge; for Pre-emerge Herbicidal Activity RICE: crop damage, phytotoxicity rating 0-100 at 14 days after application; for phytotoxicity rating RICE: 14 days after application, rating scale 0-100
Procedure, shortened: (§1)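 Visual ratings on a 0-100 scale (0 no damage, 100 all plants dead) were taken at 14 days after treatment. Rates of 15-1000 g ai/ha in acetone, 187 l/ha, were sprayed onto soil one day after planting (pre-emerge) or onto 2-3 leaf plants with 0.25% v/v surfactant (post-emerge).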

[2] = test system: field corn (Zea mays L., var. Dekalb 535, CORN); assay: Pre-emerge test, crop safety; conditions: pre-emerge; for Pre-emerge Herbicidal Activity CORN: crop damage, phytotoxicity rating 0-100 at 14 days after application; for phytotoxicity rating CORN: 14 days after application, rating scale 0-100
Procedure, shortened: as §1

[3] = test system: green foxtail (Setaria viridis, SETVI); assay: Pre-emerge test, greenhouse herbicide activity screening; conditions: pre-emerge; for Pre-emerge Herbicidal Activity SETVI: phytotoxicity rating 0-100 at 14 days after application; for phytotoxicity rating SETVI: 14 days after application, rating scale 0-100
Procedure, shortened: (§2)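 Rating: 0–100 visual injury, 14 DAA. Application: acetone, 187 l/ha, 15–1000 g ai/ha, flat-fan track sprayer with nozzle 40–45 cm above soil or canopy. Post-emerge runs used 0.25% v/v surfactant on 2–3 leaf plants.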

[4] = test system: large crabgrass (Digitaria sanguinalis, DIGSA); assay: as above; conditions: pre-emerge; for Pre-emerge Herbicidal Activity DIGSA: phytotoxicity rating 0-100 at 14 days after application; for phytotoxicity rating DIGSA: 14 days after application, rating scale 0-100
Procedure, shortened: as §2

[5] = test system: velvetleaf (Abutilon theophrasti, ABUTH); assay: as above; conditions: pre-emerge; for Pre-emerge Herbicidal Activity ABUTH: phytotoxicity rating 0-100 at 14 days after application; for phytotoxicity rating ABUTH: 14 days after application, rating scale 0-100
Procedure, shortened: as §2

[6] = test system: lambsquarters (Chenopodium album, CHEAL); assay: as above; conditions: pre-emerge; for Pre-emerge Herbicidal Activity CHEAL: phytotoxicity rating 0-100 at 14 days after application; for phytotoxicity rating CHEAL: 14 days after application, rating scale 0-100
Procedure, shortened: as §2

[7] = test system: barnyardgrass (Echinochloa crus-galli, ECHCG); assay: as above; conditions: pre-emerge; for Pre-emerge Herbicidal Activity ECHCG: phytotoxicity rating 0-100 at 14 days after application; for phytotoxicity rating ECHCG: 14 days after application, rating scale 0-100
Procedure, shortened: as §2

[8] = test system: ivyleaf morningglory (Ipomoea hederacea, IPOHE); assay: as above; conditions: pre-emerge; for Pre-emerge Herbicidal Activity IPOHE: phytotoxicity rating 0-100 at 14 days after application; for phytotoxicity rating IPOHE: 14 days after application, rating scale 0-100
Procedure, shortened: as §2

[9] = test system: johnsongrass (Sorghum halepense, SORHA); assay: as above; conditions: pre-emerge, phytotoxicity rating 0-100 at 14 days after application
Procedure, shortened: as §2

[10] = test system: sicklepod (Cassia obtusifolia, CASOB); assay: as above; conditions: pre-emerge; for Pre-emerge Herbicidal Activity CASOB: phytotoxicity rating 0-100 at 14 days after application; for phytotoxicity rating CASOB: 14 days after application, rating scale 0-100
Procedure, shortened: as §2

[11] = test system: redroot pigweed (Amaranthus retroflexus, AMARE); assay: as above; conditions: pre-emerge; for Pre-emerge Herbicidal Activity AMARE: phytotoxicity rating 0-100 at 14 days after application; for phytotoxicity rating AMARE: 14 days after application, rating scale 0-100
Procedure, shortened: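 Sandy loam pots; pre-emerge: sown 1 d pre-spray, surface-watered after, then bottom-watered. Post-emerge: sown 8–21 d before, 2–3 leaf stage, + 0.25% v/v NIS, bottom-watered. Acetone, 187 l/ha track spray, 15–1000 g ai/ha. 0–100 injury score, day 14.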

[12] = test system: green foxtail (Setaria viridis, SETVI); assay: Post-emerge test, greenhouse herbicide activity screening; conditions: post-emerge, 14 days after application, rating scale 0-100
Procedure, shortened: (§3)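 Plants grown in 10 cm pots of sandy loam mix received acetone-dissolved compounds through a moving flat-fan nozzle. Doses ranged from 15 to 1000 g ai/ha. Pre-emerge pots were seeded one day earlier, post-emerge pots 8–21 days earlier. Fourteen days on, each pot was graded 0–100 for damage.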

[13] = test system: large crabgrass (Digitaria sanguinalis, DIGSA); assay: as above; conditions: post-emerge, 14 days after application, rating scale 0-100
Procedure, shortened: as §3

[14] = test system: velvetleaf (Abutilon theophrasti, ABUTH); assay: as above; conditions: post-emerge, 14 days after application, rating scale 0-100
Procedure, shortened: as §3

[15] = test system: lambsquarters (Chenopodium album, CHEAL); assay: as above; conditions: post-emerge, 14 days after application, rating scale 0-100
Procedure, shortened: as §3

[16] = test system: barnyardgrass (Echinochloa crus-galli, ECHCG); assay: as above; conditions: post-emerge, 14 days after application, rating scale 0-100
Procedure, shortened: as §3

[17] = test system: ivyleaf morningglory (Ipomoea hederacea, IPOHE); assay: as above; conditions: post-emerge, 14 days after application, rating scale 0-100
Procedure, shortened: as §3

[18] = test system: sicklepod (Cassia obtusifolia, CASOB); assay: as above; conditions: post-emerge, 14 days after application, rating scale 0-100
Procedure, shortened: as §3

[19] = test system: redroot pigweed (Amaranthus retroflexus, AMARE); assay: as above; conditions: post-emerge, 14 days after application
Procedure, shortened: as §3

[20] = test system: upland rice (Oryza sp., var. Tebonnet, RICE); assay: Post-emerge test, crop safety; conditions: post-emerge, 14 days after application, rating scale 0-100
Procedure, shortened: as §3

[21] = test system: field corn (Zea mays L., var. Dekalb 535, CORN); assay: Post-emerge test, crop safety; conditions: post-emerge, 14 days after application, rating scale 0-100
Procedure, shortened: as §3

## COc1c(Cl)cc(F)c(-n2c(=O)n3n(c2=O)CCCC3)c1NC(C)=O [9-5]
[1]; rate 63 g ai/ha
  Pre-emerge Herbicidal Activity RICE: 25
[1]; rate 250 g ai/ha
  Pre-emerge Herbicidal Activity RICE: 60
[2]; rate 63 g ai/ha
  Pre-emerge Herbicidal Activity CORN: 0
[2]; rate 250 g ai/ha
  Pre-emerge Herbicidal Activity CORN: 10
[3]; rate 63 g ai/ha
  Pre-emerge Herbicidal Activity SETVI: 20
[3]; rate 250 g ai/ha
  Pre-emerge Herbicidal Activity SETVI: 60
[4]; rate 63 g ai/ha
  Pre-emerge Herbicidal Activity DIGSA: 10
[4]; rate 250 g ai/ha
  Pre-emerge Herbicidal Activity DIGSA: 40
[5]; rate 63 g ai/ha
  Pre-emerge Herbicidal Activity ABUTH: 100
[5]; rate 250 g ai/ha
  Pre-emerge Herbicidal Activity ABUTH: 100
[6]; rate 63 g ai/ha
  Pre-emerge Herbicidal Activity CHEAL: 100
[6]; rate 250 g ai/ha
  Pre-emerge Herbicidal Activity CHEAL: 100
[7]; rate 63 g ai/ha
  Pre-emerge Herbicidal Activity ECHCG: 0
[7]; rate 250 g ai/ha
  Pre-emerge Herbicidal Activity ECHCG: 30
[8]; rate 63 g ai/ha
  Pre-emerge Herbicidal Activity IPOHE: 70
[8]; rate 250 g ai/ha
  Pre-emerge Herbicidal Activity IPOHE: 100
[9]; rate 63 g ai/ha
  Pre-emerge Herbicidal Activity SORHA: 0
[9]; rate 250 g ai/ha
  Pre-emerge Herbicidal Activity SORHA: 20
[10]; rate 63 g ai/ha
  Pre-emerge Herbicidal Activity CASOB: 10
[10]; rate 250 g ai/ha
  Pre-emerge Herbicidal Activity CASOB: 80
[11]; rate 63 g ai/ha
  Pre-emerge Herbicidal Activity AMARE: 100
[11]; rate 250 g ai/ha
  Pre-emerge Herbicidal Activity AMARE: 100

## COc1c(Cl)cc(F)c(-n2c(=O)cc(C(F)(F)F)n(C)c2=O)c1NN=Cc1ccc(F)cc1F [15-20]
[12]; 63 g ai/ha
  Post-emerge Herbicidal Activity SETVI (phytotoxicity rating): 80
[12]; 250 g ai/ha
  Post-emerge Herbicidal Activity SETVI (phytotoxicity rating): 100
[13]; 63 g ai/ha
  Post-emerge Herbicidal Activity DIGSA (phytotoxicity rating): 30
[13]; 250 g ai/ha
  Post-emerge Herbicidal Activity DIGSA (phytotoxicity rating): 90
[14]; 63 g ai/ha
  Post-emerge Herbicidal Activity ABUTH (phytotoxicity rating): 100
[14]; 250 g ai/ha
  Post-emerge Herbicidal Activity ABUTH (phytotoxicity rating): 100
[15]; 63 g ai/ha
  Post-emerge Herbicidal Activity CHEAL (phytotoxicity rating): 100
[15]; 250 g ai/ha
  Post-emerge Herbicidal Activity CHEAL (phytotoxicity rating): 100
[16]; 63 g ai/ha
  Post-emerge Herbicidal Activity ECHCG (phytotoxicity rating): 50
[16]; 250 g ai/ha
  Post-emerge Herbicidal Activity ECHCG (phytotoxicity rating): 100
[17]; 63 g ai/ha
  Post-emerge Herbicidal Activity IPOHE (phytotoxicity rating): 100
[17]; 250 g ai/ha
  Post-emerge Herbicidal Activity IPOHE (phytotoxicity rating): 100
[18]; 63 g ai/ha
  Post-emerge Herbicidal Activity CASOB (phytotoxicity rating): 80
[18]; 250 g ai/ha
  Post-emerge Herbicidal Activity CASOB (phytotoxicity rating): 100
[19]; 63 g ai/ha, rating scale 0-100 (0 no damage, 100 complete death)
  Post-emerge Herbicidal Activity AMARE (phytotoxicity rating): 100
[19]; 250 g ai/ha, rating scale 0-100
  Post-emerge Herbicidal Activity AMARE (phytotoxicity rating): 100
[1]; 63 g ai/ha
  phytotoxicity rating RICE: 70
[1]; 250 g ai/ha
  phytotoxicity rating RICE: 100
[2]; 63 g ai/ha
  phytotoxicity rating CORN: 65
[2]; 250 g ai/ha
  phytotoxicity rating CORN: 95
[3]; 63 g ai/ha
  phytotoxicity rating SETVI: 100
[3]; 250 g ai/ha
  phytotoxicity rating SETVI: 100
[4]; 63 g ai/ha
  phytotoxicity rating DIGSA: 100
[4]; 250 g ai/ha
  phytotoxicity rating DIGSA: 100
[5]; 63 g ai/ha
  phytotoxicity rating ABUTH: 100
[5]; 250 g ai/ha
  phytotoxicity rating ABUTH: 100
[6]; 63 g ai/ha
  phytotoxicity rating CHEAL: 100
[6]; 250 g ai/ha
  phytotoxicity rating CHEAL: 100
[7]; 63 g ai/ha
  phytotoxicity rating ECHCG: 50
[7]; 250 g ai/ha
  phytotoxicity rating ECHCG: 100
[8]; 63 g ai/ha
  phytotoxicity rating IPOHE: 80
[8]; 250 g ai/ha
  phytotoxicity rating IPOHE: 80
[10]; 63 g ai/ha
  phytotoxicity rating CASOB: 60
[10]; 250 g ai/ha
  phytotoxicity rating CASOB: 100
[20]; 63 g ai/ha
  Post-emerge Herbicidal Activity RICE (crop damage rating): 35
[20]; 250 g ai/ha
  Post-emerge Herbicidal Activity RICE (crop damage rating): 80
[21]; 63 g ai/ha
  Post-emerge Herbicidal Activity CORN (crop damage rating): 40
[21]; 250 g ai/ha
  Post-emerge Herbicidal Activity CORN (crop damage rating): 85
[11]; 63 g ai/ha
  phytotoxicity rating AMARE: 100
[11]; 250 g ai/ha
  phytotoxicity rating AMARE: 100
